{
  "source": "paper PMC10060569",
  "about": "(Frontiers in Pharmacology, 2023)",
  "target": "T1, hP2X2/3R (Homo sapiens, UniProt P56373+Q9UBL9)",
  "T1 construct": "expressed in transfected cells; host or cells: Xenopus laevis oocytes (co-injection of cRNAs)",
  "T1 sequence (Q9UBL9 1-471)": "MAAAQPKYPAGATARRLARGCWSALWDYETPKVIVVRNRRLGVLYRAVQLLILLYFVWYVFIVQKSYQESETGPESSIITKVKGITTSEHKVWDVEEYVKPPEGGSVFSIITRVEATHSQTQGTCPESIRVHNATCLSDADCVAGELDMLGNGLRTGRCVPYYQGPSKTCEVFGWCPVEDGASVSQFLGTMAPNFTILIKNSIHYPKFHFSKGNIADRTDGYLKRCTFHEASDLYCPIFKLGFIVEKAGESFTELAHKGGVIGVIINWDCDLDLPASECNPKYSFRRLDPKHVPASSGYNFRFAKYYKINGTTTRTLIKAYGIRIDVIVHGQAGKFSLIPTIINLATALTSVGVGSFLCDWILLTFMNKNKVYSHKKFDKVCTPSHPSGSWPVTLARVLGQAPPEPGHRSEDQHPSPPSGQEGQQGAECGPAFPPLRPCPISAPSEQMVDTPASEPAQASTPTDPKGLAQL",
  "T1 sequence (P56373 1-397)": "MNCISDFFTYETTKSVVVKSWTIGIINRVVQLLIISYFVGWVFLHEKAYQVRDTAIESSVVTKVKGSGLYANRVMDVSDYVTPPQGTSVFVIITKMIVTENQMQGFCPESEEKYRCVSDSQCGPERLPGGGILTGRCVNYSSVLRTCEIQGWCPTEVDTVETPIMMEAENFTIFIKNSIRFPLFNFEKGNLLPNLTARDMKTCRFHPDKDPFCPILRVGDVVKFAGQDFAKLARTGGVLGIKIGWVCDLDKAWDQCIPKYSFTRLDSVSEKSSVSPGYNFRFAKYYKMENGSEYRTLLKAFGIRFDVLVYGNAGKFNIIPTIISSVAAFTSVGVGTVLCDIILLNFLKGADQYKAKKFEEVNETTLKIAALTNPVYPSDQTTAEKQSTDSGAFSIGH",
  "test": "TEVC of α,β-meATP-induced currents, heteromeric hP2X2/3R in X. laevis oocytes (steady-state protocol)",
  "format": "cell-based",
  "description": "Oocyte expression plasmids encoding the wild-type (wt) and N-terminally His-tagged (His-) fusion constructs of the hP2X2R, hP2X3R, hP2X4R, and hP2X7R, and the mutant His-^20RMVL^23KVIV^23S^26N-hP2X1R, S^15V-rP2X3R, and His-S^15V-hP2X3R were the same as used in previous research ([Hausmann et al., 2006]; [Wolf et al., 2011]; [Hausmann et al., 2014]; [Obrecht et al., 2019]). In most cases, the N-terminal His-tagged variants of P2XRs were used here and in the previous studies to allow biochemical analyses on affinity-purified proteins using the same constructs. Although this was not required for the present study, it allows for better comparability with our previous studies. Capped cRNAs of different P2XRs were already available in the research group or were synthesized as previously described ([Schmalzing et al., 1991]; [Stolz et al., 2015]). cRNA was injected into collagenase-defolliculated X. laevis oocytes in aliquots of 41 nl or 23 nl (see Supplementary Table S1 for the amount of cRNA used for expression of the indicated P2XR) using a Nanoliter 2000 injector (World Precision Instruments, Sarasota, United States of America) as described previously ([Hausmann et al., 2014]; [Stolz et al., 2015]; [Obrecht et al., 2019]). To express the heteromeric hP2X2/3 receptor, cRNAs encoding His-hP2X2R and wt-hP2X3R were coinjected at a ratio (w/w) of 1:6. Oocytes were stored at 19°C in an oocyte ringer solution (ORi^+) containing 90 mM NaCl, 1 mM KCl, 1 mM CaCl2, 1 mM MgCl2, and 10 mM HEPES (Carl Roth, Karlsruhe, Germany) adjusted to pH 7.4 with NaOH and supplemented with 50 μg/ml gentamicin (AppliChem, Darmstadt, Germany). The procedures followed for the maintenance of and the surgical treatment for X. laevis adults were approved by the governmental animal care and use committee of the State Agency for Nature, Environment, and Consumer Protection (LANUV, Recklinghausen, Germany; reference no. 81-02.04.2019. A355), in compliance with Directive 2010/63/EU of the European Parliament and of the Council on the protection of animals used for scientific purpose.\nIon currents mediated by P2X receptors were evoked by the indicated concentration of ATP or α,β-meATP and were recorded 1 or 2 days after cRNA injection at ambient temperature at a holding potential of −60 mV by two-electrode voltage clamp (TEVC) as previously described ([Hausmann et al., 2006]). Calcium-free ORi^− solution (90 mM NaCl, 1 mM KCl, 2 mM MgCl2, 10 mM HEPES, pH 7.4) was used to avoid bias due to calcium-activated chloride channels (CaCC) endogenously expressed in X. laevis oocytes ([Miledi, 1982]; [Methfessel et al., 1986]). For recordings of wt-hP2X7R, the composition of the ORi^− solution was modified according to protocols described previously and contained 100 mM NaCl, 2.5 mM KCl, 1 mM MgCl2, 5 mM HEPES, pH 7.4 ([Klapperstück et al., 2000]). The oocytes were continuously superfused with ORi^− by gravity flow (5–10 ml/min). The agonists ATP or α,β-meATP and the investigated NSAIDs were diluted in ORi^− on the day of the recording. The following agonist concentrations were used for the different P2X subtypes: 1 μM ATP (hP2X1R mutant, hP2X3R, rP2X3R, S^15V-hP2X3R, and S^15V-rP2X3R); 10 μM ATP (hP2X2R and hP2X4R); 300 μM free ATP^4- (hP2X7R); and 1 μM α,β-meATP (hP2X2/3R). […]",
  "note": "Like-named read-outs stand apart in the source and are kept apart here.",
  "data": [
    {"compound": "O=C(O)Cc1ccccc1Nc1c(Cl)cccc1Cl", "note": "[Diclofenac, diclofenac]", "values": [
      {"measurement": "IC50", "setting": "1 µM α,β-meATP, steady-state protocol, X. laevis oocytes", "value": 76.7, "unit": "µM"},
      {"measurement": "reduction of current amplitude in the presence of 3–10 µM diclofenac", "setting": "3–10 µM diclofenac", "value": "20%–30%"},
      {"measurement": "inhibition at 30 µM", "setting": "read-out: % inhibition by 30 µM diclofenac of 1 µM α,β-meATP-induced current", "value": 44.8, "unit": "%"},
      {"measurement": "inhibition at 30 µM", "setting": "read-out: % inhibition by 30 µM diclofenac of 30 µM α,β-meATP-induced current", "value": 25.1, "unit": "%"},
      {"measurement": "inhibition at 1000 µM", "setting": "read-out: Max. inhibition at 1 mM", "value": 97, "unit": "%"}
    ]}
  ]
}
